pKd: −log10 of the molar value.
Assays:
[1] = Binding affinity to N-terminal His-tagged DC-SIGN CRD (194 to 331 residues) (unknown origin) expressed in Escherichia coli BL21 assessed as dissociation constant by HSQC-NMR spectrum analysis
[2] = Binding affinity to DC-SIGN ECD (66 to 404 residue) (unknown origin) expressed in Escherichia coli BL21 assessed as dissociation constant by STD reporter assay based NMR spectroscopy analysis

Row | Structure (SMILES) | pKd [1] | pKd [2]
1 | CCOC(=O)c1c[nH]c2c(C(=O)OCC)cccc2c1=O | – | 4.00
2 | CCOC(=O)c1cnc2ccccc2c1O | 3.70 | 3.70
3 | O=C(O)c1cnc2ccccc2c1O | – | 2.66
4 | CCOC(=O)c1cc(=O)c2cccc(F)c2[nH]1 | 3.40 | 3.30
5 | CCOC(=O)c1cc(=O)c2cccc(C(=O)OCC)c2[nH]1 | – | 3.22

Next, values leading:

Row | pKd [1] | pKd [2] | Structure (SMILES)
6 | 3.40 | 3.52 | CN(C)C(=O)c1c[nH]c2c(F)cccc2c1=O
7 | – | 3.30 | O=C(O)c1c[nH]c2ccc(S(=O)(=O)N3CCCCC3)cc2c1=O
8 | – | 2.54 | CN(C)C(=O)c1c[nH]c2ccc(F)cc2c1=O
9 | – | 3.52 | CN(C)C(=O)c1ccc2c(=O)c(S(=O)(=O)c3ccccc3)c[nH]c2c1
10 | 3.30 | 3.40 | CN(C)C(=O)c1c[nH]c2cc(N(C)C)ccc2c1=O
11 | – | 2.72 | O=c1c(S(=O)(=O)c2ccccc2)c[nH]c2cc(F)ccc12
12 | – | 3.52 | CCOC(=O)c1c[nH]c2ccc(N(C)C)cc2c1=O
